Converted amounts (≈) assume the structure as drawn.
Experiments:
[1] = test system: LLC-PK1; test: cells; type: cell-based, pig; conditions: LLC-PK1, 72 h, MTT
Procedure: (§1) Among the conjugates, LVXC-S-S-CTP10-NH2 (5) was the least cytotoxic. […] In the case of HEK 293 and LLC-PK1 cells, the IC50 values of 5 were nearly four times higher. […] Additionally, we noted that the cancer cells Hep G2 were less sensitive to the action of the given compounds than the non-cancer cells (HEK 293 and LLC-PK1).
(§2) Cytotoxicity was assessed against three mammalian cell lines: LLC-PK1, Hep G2, and HEK 293. Multiwell (96–well) plates were seeded at 7000 cells/well in Medium 199 supplemented with 7.5% FBS, MEM Eagle’s medium supplemented with 10% FBS, or DMEM medium supplemented with 10% FBS, respectively. All media were supplemented with L-glutamine and antibiotics (penicillin/streptomycin). Cells were allowed to attach overnight. Drugs were dissolved in cell culture medium and added to wells in 100-µL aliquots of 2× concentrated solutions, in triplicates. To control wells, 100 µL of the medium were added. Cells were incubated with the studied compounds for 72 h at 37 °C and 95%/5% or 90%/10% (HEK 293 cells) CO2 atmosphere. Then, 20-µL aliquots of MTT solution in PBS (4 mg/mL) were added to all wells and plates were incubated further for 3 h in 37 °C. Formazan crystals formed were dissolved in 100 µL of DMSO and the absorbance of the solutions was measured using a multiwell plate reader (Spark, Tecan, Männedorf, Switzerland) at λ = 540 nm. Cytotoxicity was determined compared to the drug-free control. All experiments were performed in triplicates.

[2] = test system: C. albicans Gu4
[3] = test system: C. krusei DSM 6128
[4] = test system: bacteria; test: Influence of salts: antibacterial activity in MHB2 compared to MHB; type: cell-based; conditions: MHB2: Ca(II) 20–25 mg/L, Mg(II) 10–12.5 mg/L
Procedure: Additionally, for selected compounds, the aspect of the influence of salts present in the medium on antimicrobial activity was evaluated. […] In the salt-enriched medium, the MIC values determined for TP10-NH2 were up to 40-fold higher than those found in MHB. The phenomenon of reduction of the growth inhibitory activity of antimicrobial peptides at a high salt concentration was previously evidenced by other researchers. It may cause severe limitations for AMPs’ usage as therapeutic agents because of the risk of potential inactivation by salts present in the human body.

[5] = test system: S. epidermidis ATCC 12228; test: microbe, parasite or virus in culture; type: cell-based, Staphylococcus epidermidis; conditions: S. epidermidis ATCC 12228, MHB
Procedure: (§3) The antibacterial activity of TP10-NH2-based conjugates, as well as its constituents, was evaluated by microdilution assay in Mueller Hinton broth, MHB (Table 1). […] There are, however, some exceptions. […] Its activity against two other tested bacteria was somewhat lower though.
(§4) The antibacterial activity (bacteriostatic: MIC and bactericidal: MBC) of the tested compounds was determined in MHB (Mueller Hinton Broth, Sigma Aldrich, St. Louis, MO, USA) using a serial two-fold dilution method in 96-well microtiter plates according to CLSI recommendations, described in M07-A10 document. The exact conditions have been described previously. All experiments were performed in three replicates. The MIC90 and MIC50 values were defined as the concentrations of compounds tested that caused a 90% or 50% reduction of growth, respectively, comparing to the drug-free control.

[6] = test system: C. glabrata DSM 11226
[7] = test system: E. coli ATCC 25922; test: microbe, parasite or virus in culture; type: cell-based, Escherichia coli; conditions: E. coli ATCC 25922, MHB
Procedure: as §3, §4

[8] = test system: HEK 293; test: cells; type: cell-based, human; conditions: HEK 293, 72 h, MTT
Procedure: as §1, §2

[9] = test system: Hep G2; test: cells; type: cell-based, human; conditions: Hep G2, 72 h, MTT
Procedure: as §1, §2

[10] = test system: C. albicans SC 5314
[11] = test system: C. albicans Δopt1Δopt5Δptr2Δptr22
[12] = test system: S. aureus ATCC 29213; test: microbe, parasite or virus in culture; type: cell-based, Staphylococcus aureus; conditions: S. aureus ATCC 29213, MHB
Procedure: as §3, §4

[13] = test system: P. aeruginosa ATCC 27853; test: microbe, parasite or virus in culture; type: cell-based, Pseudomonas aeruginosa; conditions: P. aeruginosa ATCC 27853, MHB
Procedure: as §3, §4

[14] = test system: HEK 293; test: ROS generation (CM-H2DCFDA, flow cytometry); type: cell-based, human; conditions: for ROS HEK 293: positive cells in 24 h, class
Procedure: (§5) In the positive controls treated with H2O2, the fraction of ROS-positive cells exceeded 75%. […] Strikingly, in HL-60, a biologically significant effect was observed almost immediately (after 15 min of incubation). The same was noted after 1 h in the HEK 293 cell line. […] Similarly, conjugates 4 and 5 generated ROS at the low level (less than 15% for HL-60 and less than 20% for HEK 293) (manuscript in preparation). […] For HL-60, the critical level of ROS was noted after 15 min of incubation.
(§6) ROS generation activity was evaluated as described previously. Briefly, HEK 293 cells were seeded on 35-mm Petri dishes in the amount of 15,000 cells per plate for 24 h in DMEM medium. […] Positive controls contained 250 µM H2O2, while negative controls were without any additions. After 0.5, 2.5, 5.5, and 24 h of incubation at 37 °C, the CM-H2DCFDA molecular probe (Thermo Fischer Scientific, Waltham, USA) was added to the plates and incubation was continued for another 0.5 h. The HEK 293 cells were detached with 0.05% trypsin solution in PBS and HBSS (Hank’s Balanced Salt Solution) and suspended in fresh DMEM medium. All samples were additionally stained with 7-AAD (7-aminoactinomycin D, 0.8 µg/mL) and immediately analysed with a Guava easyCyte flow cytometer (Merc, Burlington, USA). The determinations were performed in triplicates.

[15] = test system: HL-60; test: ROS generation (CM-H2DCFDA, flow cytometry); type: cell-based, human; conditions: for ROS HL-60: positive cells in 24 h, class
Procedure: as §5, §6

[16] = biological target: T1, yeast DNA topoisomerase II (Saccharomyces cerevisiae, UniProt P06786); test: biochemical; type: biochemical; conditions: class; read-out: Topoisomerase II Inhibition
T1 construct: purchased Inspiralis (Norwich, UK)
T1 sequence (P06786 whole entry): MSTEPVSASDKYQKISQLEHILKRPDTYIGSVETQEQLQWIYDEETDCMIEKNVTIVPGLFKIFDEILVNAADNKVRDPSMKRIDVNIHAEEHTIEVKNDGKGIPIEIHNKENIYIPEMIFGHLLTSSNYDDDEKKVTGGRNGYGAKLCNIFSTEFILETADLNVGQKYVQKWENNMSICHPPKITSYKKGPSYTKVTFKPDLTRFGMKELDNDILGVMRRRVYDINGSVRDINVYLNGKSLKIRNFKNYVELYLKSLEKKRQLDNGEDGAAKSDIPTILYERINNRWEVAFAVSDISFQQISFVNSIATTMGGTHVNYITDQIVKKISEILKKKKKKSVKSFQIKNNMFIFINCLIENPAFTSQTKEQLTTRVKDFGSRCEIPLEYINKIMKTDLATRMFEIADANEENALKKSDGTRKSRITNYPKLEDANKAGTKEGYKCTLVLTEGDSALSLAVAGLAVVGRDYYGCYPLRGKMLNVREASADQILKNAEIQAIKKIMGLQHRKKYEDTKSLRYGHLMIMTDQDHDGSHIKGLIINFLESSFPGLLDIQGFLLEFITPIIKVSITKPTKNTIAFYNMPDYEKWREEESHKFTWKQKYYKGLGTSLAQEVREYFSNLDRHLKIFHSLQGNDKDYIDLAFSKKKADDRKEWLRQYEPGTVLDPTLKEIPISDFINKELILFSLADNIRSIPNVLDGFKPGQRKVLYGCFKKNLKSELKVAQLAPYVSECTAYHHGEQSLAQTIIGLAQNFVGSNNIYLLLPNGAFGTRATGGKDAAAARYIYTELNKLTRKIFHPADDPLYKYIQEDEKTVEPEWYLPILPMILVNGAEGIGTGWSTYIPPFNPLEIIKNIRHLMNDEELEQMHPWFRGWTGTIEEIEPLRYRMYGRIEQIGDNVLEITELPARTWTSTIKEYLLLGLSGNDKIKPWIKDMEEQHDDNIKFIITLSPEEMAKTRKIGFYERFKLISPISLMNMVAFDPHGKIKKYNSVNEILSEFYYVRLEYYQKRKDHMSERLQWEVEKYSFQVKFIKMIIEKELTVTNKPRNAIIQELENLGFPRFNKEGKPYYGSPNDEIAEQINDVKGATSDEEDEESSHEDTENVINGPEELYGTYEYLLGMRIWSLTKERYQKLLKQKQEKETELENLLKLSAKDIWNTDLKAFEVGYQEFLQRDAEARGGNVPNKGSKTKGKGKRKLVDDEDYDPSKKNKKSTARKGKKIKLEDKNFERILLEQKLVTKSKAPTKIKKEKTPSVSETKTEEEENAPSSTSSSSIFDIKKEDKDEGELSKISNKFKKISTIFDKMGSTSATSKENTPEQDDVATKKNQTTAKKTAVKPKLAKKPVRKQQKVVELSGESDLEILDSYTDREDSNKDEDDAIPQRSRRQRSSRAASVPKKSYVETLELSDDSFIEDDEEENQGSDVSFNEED

[17] = test system: Gram-positive and Gram-negative bacteria; type: cell-based; conditions: MHB, Gram-positive bacteria
Procedure: as §3, §4

[18] = test system: human red blood cells; test: Hemolysis assay; conditions: 1 h, 37 °C

Compound | IC50 [1] | MIC50 [2] | MIC50 [3] | MIC50 [5] | MIC90 [5] | MIC50 [6] | MIC50 [7] | MIC90 [7] | IC50 [8] | IC50 [9] | MIC50 [10] | MIC90 [10] | MIC50 [11] | MIC90 [11] | MIC50 [12] | MIC90 [12] | MIC50 [13] | MIC90 [13] | ROS level (positive cells) ([14]; HEK 293) | ROS HEK 293 [14] | also measured
CC[C@H](C)[C@H](NC(=O)[C@H](CCCCN)NC(=O)[C@H](CCCCN)NC(=O)[C@H](C)NC(=O)[C@H](CC(C)C)NC(=O)[C@H](C)NC(=O)[C@H](C)NC(=O)[C@H](CC(C)C)NC(=O)[C@H](C)NC(=O)[C@H](CCCCN)NC(=O)[C@H](CC(C)C)NC(=O)[C@H](CC(N)=O)NC(=O)[C@@H](NC(=O)[C@H](CCCCN)NC(=O)CNC(=O)[C@H](CC(C)C)NC(=O)[C@H](CC(C)C)NC(=O)[C@H](Cc1ccc(O)cc1)NC(=O)CNC(=O)[C@H](C)NC(=O)CN1CCN(c2cc3c(cc2F)c(=O)c(C(=O)O)cn3C2CC2)CC1)[C@@H](C)CC)C(=O)N[C@@H](CC(C)C)C(N)=O [Compound 1, CIP-CH2CO-TP10-NH2] | 17.8 ± 1.93 µM | 50 µM (≈ 128 µg/mL) | 50 µM (≈ 128 µg/mL) | 6.25 µM (≈ 16 µg/mL) | 12.5 µM (≈ 31.9 µg/mL) | >200 µM | 25 µM (≈ 63.8 µg/mL) | 25 µM (≈ 63.8 µg/mL) | 10.8 ± 1.87 µM | 21.7 ± 2.18 µM | 50 µM (≈ 128 µg/mL) | 100 µM (≈ 255 µg/mL) | 100 µM (≈ 255 µg/mL) | 200 µM (≈ 511 µg/mL) | 12.5 µM (≈ 31.9 µg/mL) | 12.5 µM (≈ 31.9 µg/mL) | >100 µM | >100 µM | – | – | Influence of salts (MHB2 vs MHB) on antibacterial activity [4]: slight decrease of antibacterial activity
CC[C@H](C)[C@H](NC(=O)[C@H](CCCCN)NC(=O)[C@H](CCCCN)NC(=O)[C@H](C)NC(=O)[C@H](CC(C)C)NC(=O)[C@H](C)NC(=O)[C@H](C)NC(=O)[C@H](CC(C)C)NC(=O)[C@H](C)NC(=O)[C@H](CCCCN)NC(=O)[C@H](CC(C)C)NC(=O)[C@H](CC(N)=O)NC(=O)[C@@H](NC(=O)[C@H](CCCCN)NC(=O)CNC(=O)[C@H](CC(C)C)NC(=O)[C@H](CC(C)C)NC(=O)[C@H](Cc1ccc(O)cc1)NC(=O)CNC(=O)[C@H](C)NC(=O)c1cn2c3c(c(N4CCN(C)CC4)c(F)cc3c1=O)OC[C@@H]2C)[C@@H](C)CC)C(=O)N[C@@H](CC(C)C)C(N)=O [Compound 4, LVX-TP10-NH2] | 52.9 ± 8.15 µM | 25 µM (≈ 63.1 µg/mL) | 100 µM (≈ 253 µg/mL) | 1.6 µM (≈ 4.04 µg/mL) | 1.6 µM (≈ 4.04 µg/mL) | >200 µM | 50 µM (≈ 126 µg/mL) | 50 µM (≈ 126 µg/mL) | 22.5 ± 9.7 µM | 72.6 ± 13 µM | 50 µM (≈ 126 µg/mL) | 100 µM (≈ 253 µg/mL) | 100 µM (≈ 253 µg/mL) | 100 µM (≈ 253 µg/mL) | 1.6 µM (≈ 4.04 µg/mL) | 1.6 µM (≈ 4.04 µg/mL) | 100 µM (≈ 253 µg/mL) | 100 µM (≈ 253 µg/mL) | less than 20% | ++ (++ <10% positive cells in 24 h) | ROS level (positive cells) ([15]; HL-60): less than 15%; ROS HL-60 [15]: + (+ <15% positive cells in 24 h); IC50 [16]: < 10 µM; MIC90 against Gram-positive bacteria [17]: 1.6 µM (≈ 4.04 µg/mL)
CC[C@H](C)[C@H](NC(=O)[C@H](CCCCN)NC(=O)[C@H](CCCCN)NC(=O)[C@H](C)NC(=O)[C@H](CC(C)C)NC(=O)[C@H](C)NC(=O)[C@H](C)NC(=O)[C@H](CC(C)C)NC(=O)[C@H](C)NC(=O)[C@H](CCCCN)NC(=O)[C@H](CC(C)C)NC(=O)[C@H](CC(N)=O)NC(=O)[C@@H](NC(=O)[C@H](CCCCN)NC(=O)CNC(=O)[C@H](CC(C)C)NC(=O)[C@H](CC(C)C)NC(=O)[C@H](Cc1ccc(O)cc1)NC(=O)CNC(=O)[C@H](C)NC(=O)[C@@H](N)CSSC[C@H](NC(=O)c1cn2c3c(c(N4CCN(C)CC4)c(F)cc3c1=O)OC[C@@H]2C)C(=O)O)[C@@H](C)CC)C(=O)N[C@@H](CC(C)C)C(N)=O [Compound 5, LVXC-S-S-CTP10-NH2] | 105 ± 15.6 µM | 12.5 µM (≈ 34.3 µg/mL) | 50 µM (≈ 137 µg/mL) | 3.125 µM (≈ 8.59 µg/mL) | 3.125 µM (≈ 8.59 µg/mL) | >200 µM | 3.125 µM (≈ 8.59 µg/mL) | 3.125 µM (≈ 8.59 µg/mL) | 41.3 ± 1.1 µM | 102 ± 4.9 µM | 12.5 µM (≈ 34.3 µg/mL) | 25 µM (≈ 68.7 µg/mL) | 12.5 µM (≈ 34.3 µg/mL) | 25 µM (≈ 68.7 µg/mL) | 6.25 µM (≈ 17.2 µg/mL) | 6.25 µM (≈ 17.2 µg/mL) | 12.5 µM (≈ 34.3 µg/mL) | 25 µM (≈ 68.7 µg/mL) | less than 20% | ++ (++ <10% positive cells in 24 h) | ROS level (positive cells) ([15]; HL-60): less than 15%; ROS HL-60 [15]: ++ (++ <10% positive cells in 24 h); MHC50 (concentration causing 50% hemolysis) [18]: 140 µg/mL; MHC50 (concentration causing 50% hemolysis) ([18]; converted from μg/mL): ~ 51 μM; IC50 [16]: < 50 µM
CC[C@H](C)[C@H](NC(=O)[C@H](CCCCN)NC(=O)[C@H](CCCCN)NC(=O)[C@H](C)NC(=O)[C@H](CC(C)C)NC(=O)[C@H](C)NC(=O)[C@H](C)NC(=O)[C@H](CC(C)C)NC(=O)[C@H](C)NC(=O)[C@H](CCCCN)NC(=O)[C@H](CC(C)C)NC(=O)[C@H](CC(N)=O)NC(=O)[C@@H](NC(=O)[C@H](CCCCN)NC(=O)CNC(=O)[C@H](CC(C)C)NC(=O)[C@H](CC(C)C)NC(=O)[C@H](Cc1ccc(O)cc1)NC(=O)CNC(=O)[C@H](C)NC(=O)[C@@H](N)CSSC[C@H](N)C(=O)N1CCN(c2cc3c(cc2F)c(=O)c(C(=O)O)cn3C2CC2)CC1)[C@@H](C)CC)C(=O)N[C@@H](CC(C)C)C(N)=O [Compound 6, CIPC-S-S-CTP10-NH2] | 21.3 ± 1.33 µM | 25 µM (≈ 67.9 µg/mL) | >200 µM | 6.25 µM (≈ 17 µg/mL) | 6.25 µM (≈ 17 µg/mL) | >200 µM | 6.25 µM (≈ 17 µg/mL) | 6.25 µM (≈ 17 µg/mL) | 20.8 ± 10.9 µM | 37.7 ± 2.84 µM | 50 µM (≈ 136 µg/mL) | – | 50 µM (≈ 136 µg/mL) | 50 µM (≈ 136 µg/mL) | 3.125 µM (≈ 8.49 µg/mL) | 3.125 µM (≈ 8.49 µg/mL) | >100 µM | >100 µM | – | ++ (++ <10% positive cells in 24 h) | ROS induction ([14]; HEK 293): did not induce a significant level of ROS; Incubation time at which significant/critical ROS level was noted ([15]; HL-60): 15 min

From publication PMC7369900 (International Journal of Molecular Sciences, 2020)
